Assay results as given in patent US11786530B2, “Method against severe acute respiratory syndrome coronavirus 2 infection” (National Yang Ming Chiao Tung University, priority 2021, dated 2023).

Experiments:
[1] = tested on: SARS-CoV-2 WA strain; test: Inhibition of SARS-CoV-2 in infected Vero E6 cells (MTT, OD590) with ZIP delta synergy score; format: cell-based; settings: Severe acute respiratory syndrome coronavirus 2, Vero C1008, 72 h, read-out: Inhibition rate
[2] = tested on: SARS-CoV-2; settings: model cell lines; cited from earlier work

CN(Cc1cnc2nc(N)nc(N)c2n1)c1ccc(C(=O)N[C@@H](CCC(=O)O)C(=O)O)cc1 [MTX, methotrexate]
inhibition at 0.2 µM ([1]; Comparative group 2: MTX 0.2 μM, remdesivir 0 μM, Vero E6 cells, 3 days): 11.7%
inhibition of SARS-CoV-2 replication [2]: dose-dependent, potent inhibition

CCC(CC)COC(=O)[C@H](C)N[P@](=O)(OC[C@H]1O[C@@](C#N)(c2ccc3c(N)ncnn23)[C@H](O)[C@@H]1O)Oc1ccccc1 [remdesivir]
inhibition at 3 µM [1]: 4.57%
